Values of other authors as cited in article PMC10894724 (Chemistry (Weinheim an der Bergstrasse, Germany), 2023).

Test system: P. falciparum Dd2 strain

## CCCCCC(=O)N[C@H](C(=O)N[C@@H](CCS(C)(=O)=O)C(=O)N[C@@H](CC(C)C)C(=O)[C@@]1(C)CO1)C(C)C [carmaphycin B]
  selectivity for asexual blood stage P. falciparum cells over human HepG2 cells: 3 fold
